Source: US6849644B2, “Isoquinoline derivatives useful in the treatment of CNS disorders” (SmithKline Beecham p.l.c., priority 2000, dated 2005)
Where a name gives a salt, the structure may show the parent alone.

biological target: T1, human cloned 5-HT6 receptors (Homo sapiens, UniProt P50406); test: 5-HT6 receptor binding affinity (procedures outlined in WO 98/27081)
T1 construct: expressed in transfected cells
Source text: Compounds can be tested following the procedures outlined in WO 98/27081.

T1 sequence (P50406 whole entry): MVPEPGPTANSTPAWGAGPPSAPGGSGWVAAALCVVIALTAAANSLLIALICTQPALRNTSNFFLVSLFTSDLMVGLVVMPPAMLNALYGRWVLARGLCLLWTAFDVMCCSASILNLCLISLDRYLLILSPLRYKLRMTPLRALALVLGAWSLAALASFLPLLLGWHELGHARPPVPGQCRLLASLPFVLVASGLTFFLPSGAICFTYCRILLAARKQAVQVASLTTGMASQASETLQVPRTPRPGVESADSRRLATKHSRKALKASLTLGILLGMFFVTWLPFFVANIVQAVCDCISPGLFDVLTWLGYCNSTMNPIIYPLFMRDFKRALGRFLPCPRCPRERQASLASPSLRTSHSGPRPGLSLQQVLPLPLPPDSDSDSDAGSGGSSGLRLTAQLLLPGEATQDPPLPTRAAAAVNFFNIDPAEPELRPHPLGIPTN

Ki, 1.26 to 6.31 nM:
O=S(=O)(c1ccc2c(c1)CNCC2)n1ccc2ccccc21 [Example E1, 7-(Indole-1-sulfonyl)-1,2,3,4-tetrahydro-isoquinoline Hydrochloride]
O=S(=O)(c1ccc2c(c1)CNCC2)n1c2c(c3ccccc31)CCCC2 [Example E9, 9-(1,2,3,4-Tetrahydro-isoquinoline-7-sulfonyl)-2,3,4,9-tetrahydro-1H-carbazole]
Cc1cn(S(=O)(=O)c2ccc3c(c2)CNCC3)c2ccccc12 [Example E10, 7-(3-Methyl-indole-1-sulfonyl)-1,2,3,4-tetrahydro-isoquinoline]
O=S(=O)(c1ccc2c(c1)CNCC2)n1c(-c2ccccc2)cc2cc(F)ccc21 [Example E13, 7-(5-Fluoro-2-phenyl-indole-1-sulfonyl)-1,2,3,4-tetrahydro-isoquinoline]
O=S(=O)(c1ccc2c(c1)CNCC2)n1ccc2ccc(Cl)cc21 [Example E16, 7-(6-Chloro-indole-1-sulfonyl)-1,2,3,4-tetrahydro-isoquinoline]
O=S(=O)(c1ccc2c(c1)CNCC2)n1ccc2c(Cl)cccc21 [Example E17, 7-(4-Chloro-indole-1-sulfonyl)-1,2,3,4-tetrahydro-isoquinoline]
COc1ccc2ccn(S(=O)(=O)c3ccc4c(c3)CNCC4)c2c1 [Example E19, 7-(6-Methoxy-indole-1-sulfonyl)-1,2,3,4-tetrahydro-isoquinoline]
Cc1ccc2ccn(S(=O)(=O)c3ccc4c(c3)CNCC4)c2c1 [Example E20, 7-(6-Methyl-indole-1-sulfonyl)-1,2,3,4-tetrahydro-isoquinoline]
Cc1cccc2c1ccn2S(=O)(=O)c1ccc2c(c1)CNCC2 [Example E21, 7-(4-Methyl-indole-1-sulfonyl)-1,2,3,4-tetrahydro-isoquinoline]
O=S(=O)(c1ccc2c(c1)CNCC2)n1ccc2ccc(F)cc21 [Example E22, 7-(6-Fluoro-indole-1-sulfonyl)-1,2,3,4-tetrahydro-isoquinoline]
O=S(=O)(c1ccc2c(c1)CNCC2)n1ccc2cc(F)c(F)cc21 [Example E23, 7-(5,6-Difluoro-indole-1-sulfonyl)-1,2,3,4-tetrahydro-isoquinoline]
O=S(=O)(c1ccc2c(c1)CNCC2)n1ccc2ccc(C(F)(F)F)cc21 [Example E24, 7-(6-Trifluoromethyl-indole-1-sulfonyl)-1,2,3,4-tetrahydro-isoquinoline]
O=S(=O)(c1ccc2c(c1)CNCC2)n1c2ccccc2c2ccccc21 [Example E26, 9-(1,2,3,4-tetrahydro-isoquinoline-7-sulfonyl)-9H-carbazole]
O=S(=O)(c1ccc2c(c1)CNCC2)n1cc(-c2ccccc2)c2ccccc21 [Example E35, 7-(3-Phenyl-indole-1-sulfonyl)-1,2,3,4-tetrahydro-isoquinoline Hydrochloride]
